In paper PMC2099433, “The binding site for neohesperidin dihydrochalcone at the human sweet taste receptor” (BMC Structural Biology, 2007) one finds EC50 and Emax data, which are given here for 2 compounds.

Assay [1] addresses T1, hTAS1R2 + hTAS1R3 R723A^5.36 (Homo sapiens, UniProt Q7RTX0+Q8TE23, R723A).
T1 construct: expressed in transfected cells; host or cells: HEK293T cells stably expressing G16Gust44
T1 sequence (Q8TE23 20-839): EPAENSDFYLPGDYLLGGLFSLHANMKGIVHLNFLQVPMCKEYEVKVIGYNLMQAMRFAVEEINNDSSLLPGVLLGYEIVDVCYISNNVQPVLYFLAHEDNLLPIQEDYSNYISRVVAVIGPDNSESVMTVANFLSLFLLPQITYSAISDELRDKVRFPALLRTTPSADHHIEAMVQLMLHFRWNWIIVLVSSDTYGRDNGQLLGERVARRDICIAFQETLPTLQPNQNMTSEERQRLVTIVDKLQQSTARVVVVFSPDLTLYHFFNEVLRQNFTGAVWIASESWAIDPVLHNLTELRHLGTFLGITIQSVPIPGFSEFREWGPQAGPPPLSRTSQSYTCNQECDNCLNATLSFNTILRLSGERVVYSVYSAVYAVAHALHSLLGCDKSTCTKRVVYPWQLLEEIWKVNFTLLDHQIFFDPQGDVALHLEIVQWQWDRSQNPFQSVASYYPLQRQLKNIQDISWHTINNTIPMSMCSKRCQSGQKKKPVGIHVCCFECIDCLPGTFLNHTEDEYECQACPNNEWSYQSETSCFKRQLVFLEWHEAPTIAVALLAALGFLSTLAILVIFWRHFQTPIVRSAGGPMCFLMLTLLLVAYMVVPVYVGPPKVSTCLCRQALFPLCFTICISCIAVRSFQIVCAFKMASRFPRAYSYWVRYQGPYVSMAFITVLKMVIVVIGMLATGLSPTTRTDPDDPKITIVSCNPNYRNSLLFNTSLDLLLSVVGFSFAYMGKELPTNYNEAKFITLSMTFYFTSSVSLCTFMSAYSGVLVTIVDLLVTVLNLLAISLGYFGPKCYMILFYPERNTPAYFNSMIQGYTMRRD
T1 sequence (Q7RTX0 21-852 R723A): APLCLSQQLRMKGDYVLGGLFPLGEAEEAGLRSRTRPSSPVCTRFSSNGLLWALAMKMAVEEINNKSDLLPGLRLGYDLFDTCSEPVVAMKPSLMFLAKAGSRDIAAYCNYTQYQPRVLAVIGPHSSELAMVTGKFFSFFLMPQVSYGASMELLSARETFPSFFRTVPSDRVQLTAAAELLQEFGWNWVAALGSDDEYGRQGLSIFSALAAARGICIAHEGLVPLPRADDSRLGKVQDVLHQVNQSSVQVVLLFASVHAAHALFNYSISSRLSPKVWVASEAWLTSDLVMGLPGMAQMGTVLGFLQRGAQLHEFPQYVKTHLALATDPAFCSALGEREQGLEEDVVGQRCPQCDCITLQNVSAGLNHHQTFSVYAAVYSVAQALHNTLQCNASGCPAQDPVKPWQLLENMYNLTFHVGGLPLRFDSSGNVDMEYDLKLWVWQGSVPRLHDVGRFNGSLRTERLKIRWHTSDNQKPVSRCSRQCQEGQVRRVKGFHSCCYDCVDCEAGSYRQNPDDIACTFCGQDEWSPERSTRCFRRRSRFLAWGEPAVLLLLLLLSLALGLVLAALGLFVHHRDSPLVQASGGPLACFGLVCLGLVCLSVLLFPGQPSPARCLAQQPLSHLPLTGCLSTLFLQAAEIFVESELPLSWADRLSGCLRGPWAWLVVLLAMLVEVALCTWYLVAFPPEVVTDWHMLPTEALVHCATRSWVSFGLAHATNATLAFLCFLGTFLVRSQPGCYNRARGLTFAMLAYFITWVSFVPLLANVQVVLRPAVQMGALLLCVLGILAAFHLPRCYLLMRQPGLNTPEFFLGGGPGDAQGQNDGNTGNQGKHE
As to the kind of experiment: Calcium response (FLIPR), hTAS1R3 mutant coexpressed with hTAS1R2. The assay is classed as cell-based. Conditions: variant R723A^5.36; for Emax: read-out: maximal signal (% of wt). The method, boiled down: (§1)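 Read-out: FLIPR calcium signal as ΔF/F = (F-F0)/F0, corrected for mock-transfected cells. Cells were HEK293T stably carrying G16Gust44, transiently transfected with HSV-tagged receptor cDNAs and dye-loaded with Fluo4-AM 24 h post transfection.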

Assay [2] addresses T2, hTAS1R2 + hTAS1R3 V779A^6.52 (Homo sapiens, UniProt Q7RTX0+Q8TE23, V779A).
T2 construct: expressed in transfected cells; host or cells: HEK293T cells stably expressing G16Gust44
T2 sequence (Q8TE23 20-839): T1 sequence (Q8TE23 20-839)
T2 sequence (Q7RTX0 21-852 V779A): T1 sequence (Q7RTX0 21-852 R723A) with A703R, V759A
The assay is described as above. The assay is classed as cell-based. Conditions: variant V779A^6.52; for Emax: read-out: maximal signal (% of wt). The method, boiled down: as §1

Structures are written as SMILES. Where a chain is given by its changes, count along the chain named. Where a SMILES comes first, the peptide text is derived from it.

As a reminder, the EC50 is the concentration giving half of the maximal effect. `COc1ccc(CCC(=O)c2c(O)cc(O[C@@H]3O[C@H](CO)[C@@H](O)[C@H](O)[C@H]3O[C@@H]3O[C@@H](C)[C@H](O)[C@@H](O)[C@H]3O)cc2O)cc1O` [NHDC, neohesperidin dihydrochalcone]: the 50% effective concentration (EC50) in assay [1] and in assay [2] was 200 ± 100 µM throughout. The results for the Emax in assay [1] and in assay [2] were 69 ± 71% and 88 ± 14%, respectively.
Take `COC(=O)[C@H](Cc1ccccc1)NC(=O)[C@@H](N)CC(=O)O` [aspartame] (HELM PEPTIDE1{D.F.[CO[*:1]]}$$$$V2.0): the EC50 in assay [1] was determined as 1500 ± 500 µM; in assay [2], 1200 ± 300 µM. For the same compound, the Emax in assay [1] was 68 ± 50%; in assay [2], 52 ± 10%.
